In paper PMC5515969, “Effects of 31 FDA approved small-molecule kinase inhibitors on isolated rat liver mitochondria” (Archives of Toxicology, 2016):
Read-outs that look alike come from different tables or passages of the source. Marks after values point to notes of the source that are not given here.

How the values were obtained:
[1] = test system: isolated rat liver mitochondria; assay: Mitochondrial toxicity, any endpoint, intact mitochondria and submitochondrial particles; assay type: biochemical; conditions: any endpoint
Experimental: (§1) Rats were anesthetized by an intraperitoneal injection of Nembutal and the liver perfused with PBS to remove the blood. The liver was then cut into small pieces and homogenized using a Dounce type homogenizer in the ice-cold isolation buffer (IB) containing 200 mM sucrose, 10 mM Tris-MOPS, 1 mM EGTA (pH 7.4). The sample was then centrifuged at 600g for 10 min. The supernatant was further centrifuged at 7500g for 10 min, and the pellets was washed once with the IB and centrifuged again at 7500g for 10 min to collect mitochondria. […] Before drug treatment, the protein concentration was adjusted to 1 mg/ml using appropriate buffer. […] Briefly, mitochondrial and cytosolic fractions from four different preparations using four rats were diluted using the Laemmli protein loading buffer and subject to SDS-PAGE with 4–20% gradient gels. The proteins were blotted to PVDF membranes and detected using antibodies against GAPDH, ATP5A, UQCRC2, SDHB, and NDUFB8.
(§2) The aliquoted stock solutions were kept for less than one month and each tube was used only once. The KIs were added to the mitochondria at 1:1000 dilutions. […] The Cmax data were from clinical trials which used FDA recommend dosages, route of administration, and duration. […] The final concentration of DMSO for drug treatment was always 0.1%, and control treatments were 0.1% DMSO.

[2] = test system: isolated rat liver mitochondria; assay: Mitochondrial ROS production (CM-H2DCFDA)
[3] = test system: isolated rat liver mitochondria
[4] = cited from earlier work
RCC V = RCC V activity in submitochondrial particles; assay type: biochemical, rat; conditions: 5XCmax; DMSO treated samples set as 1; further: key: 0 indicates that the drug had no effects (negative)
Experimental: (§3) KIs were incubated with submitochondrial particles (1 mg/ml) for 15 min and then RCC I–V activities measured. […] The activities of DMSO-treated samples (controls) were set as 1. […] The difference between the activity from rotenone-containing buffer and rotenone-absent buffer was considered as RCC I activity. […] For measuring RCC I/V and II activity, the changes in absorbance at 340 and 600 nm, respectively, were determined every 1 min for 6 min. For measuring RCC III and RCC IV, the changes in absorbance at 550 nm were measured every 10 s for 2 min.

RCC II = molecular target: T1, RCC II (Rattus norvegicus, UniProt P21913+Q641Z9+Q6PCT8+Q920L2); assay: RCC II activity in submitochondrial particles; assay type: biochemical; set-up: key: activity relative to DMSO-treated controls (control set as 1 = 100%); conditions: DMSO treated samples set as 1
T1 construct: Submitochondrial particles were prepared by subjecting the intact mitochondria to three successive freeze–thaw cycles; from tissue; host or cells: rat liver mitochondria, used as submitochondrial particles
Experimental: as §3

[5] = test system: isolated rat liver mitochondria; assay: Mitochondrial inner membrane potential (MMP), Rhodamine 123; assay type: biochemical; conditions: difference in signal between KI and DMSO treated samples at the end of experiments
Excerpt: Fig. 3 KI effects on mitochondrial inner membrane potential (MMP). […] In a, c, data are means and standard derivations from three separate experiments. *p < 0.05 as compared to DMSO-treated samples at the end of experiments. In b, data are means of two independent experiments

[6] = 1 DILI positive, 0 negative according to labeling; ref product labeling; cited from earlier work
RCC I = RCC I activity in submitochondrial particles; assay type: biochemical, rat; set-up: key to RCC I at 10XCmax / RCC I at 100XCmax / RCC I at 50XCmax / RCC I at 30XCmax / RCC I at 20XCmax: activity relative to DMSO-treated controls (control set as 1 = 100%)
Experimental: as §3

[7] = test system: isolated rat liver mitochondria; assay: Mitochondrial swelling (absorbance at 535 nm); assay type: biochemical; conditions: difference in signal between KI and DMSO treated samples at the end of experiments; on Swelling 5XCmax: key: 0 indicates that the drug had no effects (negative)
[8] = ref product labeling; cited from earlier work
[9] = test system: isolated rat liver mitochondria; assay: Mitochondrial oxygen consumption (glutamate/malate or succinate driven, state 4 and state 3); assay type: biochemical; conditions: DMSO treated samples set as 1; on State 3 respiration driven by succinate at 10XCmax: key: 0 indicates that the drug had no effects (negative); on State 3 respiration driven by succinate at 1XCmax: key: 0 indicates that the drug had no effects (negative)
Experimental: as §1, §2
Briefly, mitochondria were incubated with the KIs for 5 min, and then split evenly and loaded to the sample tubes of two Oxytherm systems (Hansatech Instruments Ltd), with one system used for measuring glutamate/malate driven respiration and the other succinate-driven respiration, both of which were defined as state 4 respiration. After 3 min, ADP was added to measure the maximal oxygen consumption rate, which was defined as state 3 respiration. […] The oxygen consumption rate of DMSO-treated samples (controls) was set as 1.

[10] = 10XCmax, DMSO treated samples set as 1

T1 sequence (Q920L2 35-656): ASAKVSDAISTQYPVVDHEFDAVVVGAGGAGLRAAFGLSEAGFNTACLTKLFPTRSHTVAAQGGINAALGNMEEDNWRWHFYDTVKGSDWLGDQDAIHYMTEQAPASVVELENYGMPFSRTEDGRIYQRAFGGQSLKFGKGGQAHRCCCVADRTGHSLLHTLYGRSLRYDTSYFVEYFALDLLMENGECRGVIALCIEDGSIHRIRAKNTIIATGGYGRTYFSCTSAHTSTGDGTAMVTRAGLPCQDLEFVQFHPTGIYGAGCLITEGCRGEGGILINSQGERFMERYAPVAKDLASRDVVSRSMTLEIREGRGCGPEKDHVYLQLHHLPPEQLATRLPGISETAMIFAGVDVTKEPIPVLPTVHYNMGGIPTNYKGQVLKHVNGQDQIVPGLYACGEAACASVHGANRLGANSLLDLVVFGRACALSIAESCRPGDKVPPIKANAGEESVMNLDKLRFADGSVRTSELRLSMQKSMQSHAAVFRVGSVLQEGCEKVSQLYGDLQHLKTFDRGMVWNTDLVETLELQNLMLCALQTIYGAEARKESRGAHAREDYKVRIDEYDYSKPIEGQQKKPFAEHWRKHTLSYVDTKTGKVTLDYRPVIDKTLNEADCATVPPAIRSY
T1 sequence (P21913 31-282): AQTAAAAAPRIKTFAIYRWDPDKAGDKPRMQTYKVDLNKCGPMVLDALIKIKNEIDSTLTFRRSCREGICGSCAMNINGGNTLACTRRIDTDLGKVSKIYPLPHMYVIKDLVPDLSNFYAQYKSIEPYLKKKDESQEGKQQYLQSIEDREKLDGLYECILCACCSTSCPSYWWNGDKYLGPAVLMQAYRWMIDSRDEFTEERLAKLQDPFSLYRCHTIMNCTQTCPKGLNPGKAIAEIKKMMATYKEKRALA
T1 sequence (Q641Z9 1-169): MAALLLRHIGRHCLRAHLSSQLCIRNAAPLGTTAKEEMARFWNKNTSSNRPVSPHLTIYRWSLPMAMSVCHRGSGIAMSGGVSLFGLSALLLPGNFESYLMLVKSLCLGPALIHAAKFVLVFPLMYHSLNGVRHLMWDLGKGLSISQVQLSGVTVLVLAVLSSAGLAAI
T1 sequence (Q6PCT8 57-159): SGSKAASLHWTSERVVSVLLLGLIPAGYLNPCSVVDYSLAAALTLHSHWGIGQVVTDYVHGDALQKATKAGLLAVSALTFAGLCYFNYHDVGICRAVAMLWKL

C=CC(=O)Nc1cc(Nc2nccc(-c3cn(C)c4ccccc34)n2)c(OC)cc1N(C)CCN(C)C [Osimertinib]
lowest concentration causing significant mitochondrial toxicity [1]: 30 fold Cmax | lowest concentration triggering ROS overproduction [2]: 30 fold Cmax | lowest concentration causing cytochrome c release ([3]; rat, 30 min, pH 7.4): 100 fold Cmax | Cmax ([4]; human therapeutic Cmax at FDA recommended dosages, ref product labeling and drug approval packages at the official FDA website): 0.5 µM

COc1cc2nccc(Oc3ccc(NC(=O)C4(C(=O)Nc5ccc(F)cc5)CC4)cc3)c2cc1OC [cabozantinib malate]
RCC V at 5XCmax (RCC V): 0 | RCC II at 1.0XCmax (RCC II; 1.0XCmax): 0 | RCC II at 2.5XCmax (RCC II; 2.5XCmax): 0 | RCC II at 5XCmax (RCC II; 5XCmax): 0 | RCC II at 10XCmax (RCC II; 10XCmax): 0 | RCC II at 20XCmax (RCC II; 20XCmax): 0 | RCC II at 30XCmax (RCC II; 30XCmax): 79.26±6.01 | ROS measured by CM-H2DCFDA at 1XCmax ([2]; 1XCmax, DMSO treated samples set as 1): 0 | ROS measured by CM-H2DCFDA at 2.5XCmax ([2]; 2.5XCmax, DMSO treated samples set as 1): 0 | ROS measured by CM-H2DCFDA at 5XCmax ([2]; 5XCmax, DMSO treated samples set as 1): 0 | ROS measured by CM-H2DCFDA at 10XCmax [2, 10]: 0 | ROS measured by CM-H2DCFDA at 20XCmax ([2]; 20XCmax, DMSO treated samples set as 1): 0 | ROS measured by CM-H2DCFDA at 30XCmax ([2]; 30XCmax, DMSO treated samples set as 1): 0 | Cytochrome c release 1XCmax ([3]; 1XCmax, positive control alamethicin treated samples): 0 | Cytochrome c release 2.5XCmax ([3]; 2.5XCmax, positive control alamethicin treated samples): 0 | Cytochrome c release 5XCmax ([3]; 5XCmax, positive control alamethicin treated samples): 0 | Cytochrome c release 10XCmax ([3]; 10XCmax, positive control alamethicin treated samples): 0 | Cytochrome c release 20XCmax ([3]; 20XCmax, positive control alamethicin treated samples): 0 | Cytochrome c release 30XCmax ([3]; 30XCmax, positive control alamethicin treated samples): 0 | MMP measured by Rhodamine 123 at 1XCmax ([5]; 1XCmax): 0 | MMP measured by Rhodamine 123 at 2.5XCmax ([5]; 2.5XCmax): 0 | MMP measured by Rhodamine 123 at 5XCmax ([5]; 5XCmax): 0 | MMP measured by Rhodamine 123 at 10XCmax ([5]; 10XCmax): 945±179* | MMP measured by Rhodamine 123 at 20XCmax ([5]; 20XCmax): 1828±818* | MMP measured by Rhodamine 123 at 30XCmax ([5]; 30XCmax): 2071±803* | DILI potential (based on labeling) [6]: 0 | RCC I at 10XCmax (RCC I; [10]): 0 | RCC I at 30XCmax (RCC I; 30XCmax, DMSO-treated = 100): 80.97±2.99 | Swelling 1XCmax ([7]; 1XCmax): 0 | Swelling 2.5XCmax ([7]; 2.5XCmax): 0 | Swelling 5XCmax ([7]; 5XCmax): 0 | Swelling 10XCmax ([7]; 10XCmax): 0 | Swelling 20XCmax ([7]; 20XCmax): 0.48±0.01 | Swelling 30XCmax ([7]; 30XCmax): 0.46±0.01 | Cmax (ng or µg/ml) ([4]; human therapeutic maximal blood concentration, ref product labeling): 1.64 µg/mL | Cmax ([4]; read-out: Cmax at µM, human therapeutic maximal blood concentration, ref product labeling): 2.58 µM | Potential for cardiotoxicity (based on labeling) [8]: 0 | State 3 respiration driven by succinate at 1XCmax ([9]; 1XCmax): 0 | State 4 respiration driven by succinate at 1XCmax ([9]; 1XCmax): 0 | State 3 respiration driven by succinate at 2.5XCmax ([9]; 2.5XCmax): 0 | State 4 respiration driven by succinate at 2.5XCmax ([9]; 2.5XCmax): 0 | State 3 respiration driven by succinate at 5XCmax ([9]; 5XCmax): 0 | State 4 respiration driven by succinate at 5XCmax ([9]; 5XCmax): 0 | State 3 respiration driven by succinate at 10XCmax ([9]; 10XCmax): 0 | State 4 respiration driven by glutamate/malate at 10XCmax ([9]; 10XCmax): 1.46±0.08 | State 4 respiration driven by succinate at 10XCmax ([9]; 10XCmax): 1.23±0.11 | State 3 respiration driven by succinate at 20XCmax ([9]; 20XCmax): 0 | State 4 respiration driven by glutamate/malate at 20XCmax ([9]; 20XCmax): 1.30±0.15 | State 4 respiration driven by succinate at 20XCmax ([9]; 20XCmax): 1.24±0.05 | State 3 respiration driven by succinate at 30XCmax ([9]; 30XCmax): 0 | State 4 respiration driven by glutamate/malate at 30XCmax ([9]; 30XCmax): 1.55±0.06 | State 4 respiration driven by succinate at 30XCmax ([9]; 30XCmax): 1.35±0.18
